Converted amounts (≈) assume the structure as drawn. Read-outs that look alike come from different tables or passages of the source.
Assays:
[1] = system: S. epidermidis T 5253 845/19; assay: MIC, clinical S. epidermidis strain; type: cell-based; conditions: Staphylococcus epidermidis, T5253845/19, quinolone-resistant, 18 h of treatment
SW620 cells = assay: MTT assay, SW620; type: cell-based, human; conditions: for IC50: Homo sapiens, SW-620, 72 h, human metastatic colon cancer, 72 h, MTT, mean ± SD; for SI SW620: SI = IC50 for normal cell line (HaCaT)/IC50 cancer cell line
P. aeruginosa ATCC 27853 = assay: MIC, twofold microdilution, standard strain; type: cell-based; conditions: Pseudomonas aeruginosa, read-out: MIC P. aeruginosa ATCC 27853
[2] = system: S. epidermidis ATCC 12228; assay: MIC, twofold microdilution, standard strain; type: cell-based; conditions: Staphylococcus epidermidis, read-out: MIC S. epidermidis ATCC 12228
SW480 cells = assay: MTT assay, SW480; type: cell-based, human; conditions: for IC50: human primary colon cancer, 72 h, MTT, mean ± SD; for SI SW480: SI = IC50 for normal cell line (HaCaT)/IC50 cancer cell line
[3] = system: M. tuberculosis Spec. 192 (Sensitive to Tuberculostatics); assay: MABA (microplate Alamar blue assay) MIC; type: cell-based; conditions: Mycobacterium tuberculosis, 336 h, read-out: MIC M. tuberculosis Spec. 192 (Sensitive to Tuberculostatics)
E. coli ATCC 25922 = assay: MIC, twofold microdilution, standard strain; type: cell-based, Escherichia coli; conditions: Escherichia coli, read-out: MIC E. coli ATCC 25922
HaCaT cells = assay: MTT assay, HaCaT normal cells; type: cell-based; conditions: human immortal keratinocyte cell line, 72 h, mean ± SD
S. aureus ATCC 6538 = assay: MIC, twofold microdilution, standard strain; type: cell-based; conditions: Staphylococcus aureus, read-out: MIC S. aureus ATCC 6538
S. aureus NCTC 4163 = assay: MIC, twofold microdilution, standard strain; type: cell-based; conditions: Staphylococcus aureus, read-out: MIC S. aureus NCTC 4163
M. tuberculosis H37Rv = assay: MABA (microplate Alamar blue assay) MIC; type: cell-based; conditions: Mycobacterium tuberculosis, 336 h, read-out: MIC M. tuberculosis H37Rv
[4] = system: S. epidermidis KR 4243 829/19; assay: MIC, clinical S. epidermidis strain; type: cell-based; conditions: Staphylococcus epidermidis, KR4243829/19, quinolone-susceptible, 18 h of treatment
[5] = system: S. epidermidis ATCC 35984; assay: MIC, twofold microdilution, standard strain; type: cell-based; conditions: Staphylococcus epidermidis, read-out: MIC S. epidermidis ATCC 35984
PC3 cells = assay: MTT assay, PC3; type: cell-based, human; conditions: for IC50: human metastatic prostate cancer, 72 h, MTT, mean ± SD; for SI PC3: SI = IC50 for normal cell line (HaCaT)/IC50 cancer cell line
[6] = system: S. epidermidis KR 4047 825/19; assay: MIC, clinical S. epidermidis strain; type: cell-based; conditions: Staphylococcus epidermidis, KR4047825/19, quinolone-resistant, 18 h of treatment
[7] = system: S. epidermidis T 5399 848/19; assay: MIC, clinical S. epidermidis strain; type: cell-based; conditions: Staphylococcus epidermidis, T5399848/19, quinolone-susceptible, 18 h of treatment
S. aureus ATCC 25923 = assay: MIC, twofold microdilution, standard strain; type: cell-based; conditions: Staphylococcus aureus, read-out: MIC S. aureus ATCC 25923
M. tuberculosis strains = assay: MABA MIC, mycobacterial strains as a group; type: cell-based; conditions: Mycobacterium tuberculosis; summary over strains; read-out: MIC antimycobacterial (strain not specified)
[8] = system: standard staphylococci (S. aureus, S. epidermidis); assay: MIC, standard Gram-positive strains as a group; type: cell-based; conditions: Staphylococcus aureus; range over standard Gram-positive strains; read-out: MIC against standard staphylococci
[9] = system: S. epidermidis KR 4313 834/19; assay: MIC, clinical S. epidermidis strain; type: cell-based; conditions: Staphylococcus epidermidis, KR4313834/19, quinolone-susceptible, 18 h of treatment
[10] = system: S. epidermidis KR 4358/2 840/19; assay: MIC, clinical S. epidermidis strain; type: cell-based; conditions: Staphylococcus epidermidis, read-out: MIC KR 4358/2 840/19
S. aureus ATCC 29213 = assay: MIC, twofold microdilution, standard strain; type: cell-based; conditions: Staphylococcus aureus, read-out: MIC S. aureus ATCC 29213
[11] = system: S. epidermidis T 5501 851/19; assay: MIC, clinical S. epidermidis strain; type: cell-based; conditions: Staphylococcus epidermidis, T5501851/19, read-out: MIC T 5501 851/19, quinolone-susceptible, 18 h of treatment
[12] = system: SW480, SW620, and PC3 cancer cell lines; assay: MTT assay, cancer cell lines as a group; type: cell-based, human; conditions: 72 h, all three cancer cell lines (SW480, SW620, PC3), read-out: IC50 against all tested cancer cell lines
[13] = KR4358/2840/19, clinical S. epidermidis, quinolone-susceptible, 18 h of treatment

Row | Compound | MIC [1] [µg/mL] | IC50 (SW620 cells) [µM] | SI SW620 (SW620 cells) | MIC (P. aeruginosa ATCC 27853; ATCC27853, 18 h of treatment) [µg/mL] | IC50 (SW480 cells; Homo sapiens, SW480, 72 h) [µM] | SI SW480 (SW480 cells) | MIC (E. coli ATCC 25922; ATCC25922, 18 h of treatment) [µg/mL] | IC50 (HaCaT cells) [µM] | MIC (S. aureus ATCC 6538; ATCC6538, 18 h of treatment) [µg/mL] | MIC (S. aureus NCTC 4163; NCTC4163, 18 h of treatment) [µg/mL] | MIC [4] [µg/mL] | MIC ([5]; ATCC35984, 18 h of treatment) [µg/mL] | IC50 (PC3 cells; Homo sapiens, PC-3, 72 h) [µM] | SI PC3 (PC3 cells) | MIC [6] [µg/mL] | MIC [7] [µg/mL] | MIC (S. aureus ATCC 25923; ATCC25923, 18 h of treatment) [µg/mL] | MIC [8] [µg/mL] | MIC [9] [µg/mL] | MIC [11] [µg/mL] | further results
1 | CCCCC/C=C\C/C=C\CCCCCCCC(=O)N1CCCC2CN(c3c(F)cc4c(=O)c(C(=O)O)cn(C5CC5)c4c3OC)CC21 (stereo not shown) [Compound 11m, 1-Cyclopropyl-6-fluoro-8-methoxy-7-{1-(9Z,12Z)-octadeca-9,12-dienoyl-octahydropyrrolo-[3,4-b]pyridin-6-yl)-4-oxo-1,4-dihydro-quinoline-3-carboxylic acid] | 512 (≈ 771 µM) | 7.3 ± 0.9 | 12.5 | > 512 | < 5 | 19.0 | > 512 | 91.4 ± 5.3 | > 512 | > 512 | 256 (≈ 386 µM) | > 512 | < 5 | 25.4 | 512 (≈ 771 µM) | 512 (≈ 771 µM) | > 512 | > 32 | 64 (≈ 96.4 µM) | 512 (≈ 771 µM) | MIC ([2]; ATCC12228, 18 h of treatment): > 512 µg/mL; IC50 (SW480 cells): 4.8 ± 1.3 µM; MIC ([3]; 2 weeks of treatment): 128 µg/mL (≈ 193 µM); MIC (M. tuberculosis H37Rv; 2 weeks of treatment): 512 µg/mL (≈ 771 µM); IC50 (PC3 cells): 3.6 ± 1.1 µM; MIC (M. tuberculosis strains): ≥ 128 µg/mL; MIC [10, 13]: 128 µg/mL (≈ 193 µM); MIC (S. aureus ATCC 29213; ATCC29213, 18 h of treatment): > 512 µg/mL
2 | CCCCCCCC/C=C/CCCCCCCC(=O)N1CCCC2CN(c3c(F)cc4c(=O)c(C(=O)O)cn(C5CC5)c4c3OC)CC21 (stereo not shown) [Compound 5m, 1-Cyclopropyl-6-fluoro-8-methoxy-7-{1-(E)-octadec-9-enoyl-octahydro-pyrrolo[3,4-b]pyridin-6-yl}-4-oxo-1,4-dihydro-quinoline-3-carboxylic acid] | 512 (≈ 769 µM) | 8.7 ± 1.2 | 10.5 | 128 (≈ 192 µM) | 6.7 ± 0.6 | 13.7 | > 512 | 91.6 ± 4.6 | > 512 | > 512 | > 512 | > 512 | 5.3 ± 1.3 | 17.3 | > 512 | 512 (≈ 769 µM) | > 512 | > 32 | 256 (≈ 384 µM) | 512 (≈ 769 µM) | MIC ([2]; ATCC12228, 18 h of treatment): > 512 µg/mL; MIC [3]: 256 µg/mL (≈ 384 µM); MIC (M. tuberculosis H37Rv; 2 weeks of treatment): 512 µg/mL (≈ 769 µM); MIC [10, 13]: 512 µg/mL (≈ 769 µM); MIC (S. aureus ATCC 29213; ATCC29213, 18 h of treatment): > 512 µg/mL; IC50 ([12]; Homo sapiens): 5 to 10 µM
3 | CCCCCCCCCCCCCCCC(=O)N1CCC[C@H]2CN(c3c(F)cc4c(=O)c(C(=O)O)cn(C5CC5)c4c3OC)C[C@H]21 [Compound 9m, 1-Cyclopropyl-6-fluoro-7-(1-hexadecanoyl-octahydro-pyrrolo[3,4-b]pyridin-6-yl)-8-methox-4-oxo-1,4-dihydro-quinoline-3-carboxylic acid] | 512 (≈ 800 µM) | 10.4 ± 1.4 | 9.3 | – | 9.4 ± 2.3 | 10.3 | – | 96.7 ± 2.6 | – | – | 512 (≈ 800 µM) | – | 8.1 ± 1.5 | 11.9 | 512 (≈ 800 µM) | 512 (≈ 800 µM) | – | > 32 | 512 (≈ 800 µM) | 512 (≈ 800 µM) | MIC (P. aeruginosa ATCC 27853; ATCC27853, 18 h): > 512 µg/mL; MIC ([2]; ATCC12228, 18 h): > 512 µg/mL; MIC [3]: > 512 µg/mL; MIC (E. coli ATCC 25922; ATCC25922, 18 h): > 512 µg/mL; MIC (S. aureus ATCC 6538; ATCC6538, 18 h): > 512 µg/mL; MIC (S. aureus NCTC 4163; NCTC4163, 18 h): > 512 µg/mL; MIC (M. tuberculosis H37Rv): > 512 µg/mL; MIC ([5]; ATCC35984, 18 h): > 512 µg/mL; MIC (S. aureus ATCC 25923; ATCC25923, 18 h): > 512 µg/mL; MIC ([10]; KR4358/2840/19, 18 h): > 512 µg/mL; MIC (S. aureus ATCC 29213; ATCC29213, 18 h): > 512 µg/mL; IC50 ([12]; Homo sapiens): 5 to 10 µM; IC50 [12]: 5.6 to 10.4 µM
4 | CCCCCCCC/C=C\CCCCCCCC(=O)N1CCCC2CN(c3c(F)cc4c(=O)c(C(=O)O)cn(C5CC5)c4c3OC)CC21 (stereo not shown) [Compound 4m, 1-Cyclopropyl-6-fluoro-8-methoxy-7-{1-(Z)-octadec-9-enoyl-octahydro-pyrrolo[3,4-b]pyridin-6-yl}-4-oxo-1,4-dihydro-quinoline-3-carboxylic acid] | > 512 | 3.4 ± 0.7 | 27.1 | 128 (≈ 192 µM) | 4.6 ± 1.4 | 20.1 | 512 (≈ 769 µM) | 92.3 ± 6.1 | 128 (≈ 192 µM) | 128 (≈ 192 µM) | > 512 | 256 (≈ 384 µM) | – | 71.0 | > 512 | > 512 | 256 (≈ 384 µM) | > 32 | > 512 | > 512 | MIC ([2]; ATCC12228, 18 h): > 512 µg/mL; MIC [3]: > 512 µg/mL; MIC (M. tuberculosis H37Rv): > 512 µg/mL; MIC ([10]; KR4358/2840/19, 18 h): > 512 µg/mL; MIC (S. aureus ATCC 29213; ATCC29213, 18 h of treatment): 512 µg/mL (≈ 769 µM); IC50 ([12]; Homo sapiens): < 5 µM

Reference: publication PMC9181188 (International Journal of Molecular Sciences, 2022)
